According to ChEMBL document CHEMBL1132727, “A novel pyridazinone derivative as a nonprostanoid PGI2 agonist” (Bioorg Med Chem Lett, 2000):

Assays:
Homo sapiens = species: Homo sapiens; test: Tested for Concentration required for the inhibition of ADP-induced aggregation of human platelets; type: functional
[1] = Half-life after administration of 3.2 mg/kg intravenously in male rat; type: ADME, organism-based; set-up: dose 3.2 mg/kg, route intravenous; details: in vivo, iv
Prostacyclin receptor = Prostacyclin receptor (Homo sapiens, UniProt P43119); test: Tested for inhibition of 3[H]-iloprost binding to human IP receptor
Chain of Prostacyclin receptor (P43119 whole entry): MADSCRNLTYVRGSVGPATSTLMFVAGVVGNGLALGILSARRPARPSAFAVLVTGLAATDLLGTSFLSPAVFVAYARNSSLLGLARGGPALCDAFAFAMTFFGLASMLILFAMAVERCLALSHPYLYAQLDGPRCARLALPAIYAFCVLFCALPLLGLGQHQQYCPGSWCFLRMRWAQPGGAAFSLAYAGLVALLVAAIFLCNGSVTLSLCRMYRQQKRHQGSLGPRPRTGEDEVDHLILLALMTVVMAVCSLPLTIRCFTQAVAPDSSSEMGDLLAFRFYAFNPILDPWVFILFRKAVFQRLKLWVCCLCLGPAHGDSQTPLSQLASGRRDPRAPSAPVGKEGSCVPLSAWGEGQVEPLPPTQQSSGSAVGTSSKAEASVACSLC

[2] = Oral Bioavailability after administration of 10 mg/kg in male rat; type: ADME, organism-based; details: in vivo, read-out: Bioavailabiility
[3] = Half-life after intravenous administration in female rat; type: ADME, organism-based; details: in vivo
[4] = Half-life after intravenous administration in male rat; type: ADME, organism-based; details: in vivo

IC50 (Homo sapiens) [nM]	Ki (Prostacyclin receptor) [nM]	Structure (SMILES)	also measured
81	94	O=C(O)COc1cccc2c1CC[C@H](Cn1nc(C(c3ccccc3)c3ccccc3)ccc1=O)C2	half-life [1]: 4.3 h; bioavailability [2]: 56%
4.3	80	CC#CCC(C)[C@H](O)/C=C/[C@H]1[C@H](O)CC2Oc3c(CCCC(=O)[O-])cccc3[C@@H]21.[Na+] (some centres not stated)	half-life [3]: 3.3 h; half-life [4]: 0.43 h
130		O=C(O)COc1cccc2c1CC[C@H](Cn1cc(C(c3ccccc3)c3ccccc3)ccc1=O)C2	

Further lines, the compound ahead of its results:

Structure (SMILES)	IC50 (Homo sapiens) [nM]	Ki (Prostacyclin receptor) [nM]	also measured
O=C(O)COc1cccc2c1CCC(Cn1cc(C(c3ccccc3)c3ccccc3)cn1)=C2	41		
O=C(O)COc1cccc2c1CC[C@H](Cn1cccc(C(c3ccccc3)c3ccccc3)c1=O)C2	> 10000		
CCC/C(CC1CCc2c(cccc2OCC(=O)O)C1)=N\OC(c1ccccc1)c1ccccc1 (configuration not stated) [AP-227]	150		
